# Assay results from PMC12990037, “Discovery of Two Structurally Distinct Classes of Inhibitors Targeting the Nuclease MUS81 and Enhancing Efficacy of Chemotherapy in Cancer Cells” (Journal of Medicinal Chemistry, 2026).
# Assays:
# Format in all cases: cell-based
# [1] = system: CAL51 MUS81^–/– cells; test: Cell proliferation assay (CyQUANT), combination with cisplatin
# Experimental: CAL51 WT, CAL51 MUS81^–/–, U2OS, and HEK293 cells were seeded in a 96-well plate and treated with the respective concentration of selected inhibitors. After incubation for 4–5 days, cells were harvested while the untreated control was still subconfluent. The plate was then incubated at −80 °C to achieve cell lysis. Cell proliferation was assessed using the CyQUANT Cell Proliferation Assay kit (Thermo Fisher Scientific) according to manufacturer’s instructions. […] was measured using a plate reader (Infinite F500, Tecan Austria GmbH).
# [2] = system: U2OS DR-GFP cells; test: I-SceI-based HR repair reporter assay; conditions: Homo sapiens, 72 h
# Experimental: (§1) 3 MUS81 inhibitors suppress HR and BIR. (A) I-SceI-based BIR repair efficiency was measured in U2OS BIR-GFP cells treated with DMSO, two different siRNAs targeting MUS81, or the indicated concentrations of MU262 and MU876, and their control analogues for 72 h. The percentage of repair was normalized to the DMSO-treated control (D). n = 3. Error bars represent standard deviation (s.d.); ****p <0.0001 (unpaired, two-tailed t-test). […] (C,D) I-SceI-based HR (C) and NHEJ (D) repair efficiency was measured using U2OS DR-GFP and EJ5-GFP cells, respectively, following treatment with DMSO, MU262,MU876, or their control analogues for 72 h. The percentage of repair was normalized to the DMSO-treated control. n = 3. Error bars represent s.d.; *p <0.05, **p <0.01, ****p <0.0001 (unpaired, two-tailed t-test).
# (§2) Reporter DR-GFP and […] U2OS cells along with BIR-GFP cells were transfected with 2.5 μg of I-SceI-expressing pCAGGS vector and subsequently treated with MUS81 inhibitors at the indicated concentrations. After transfection (72 h), cells were trypsinized and resuspended in 3% BSA in PBS. GFP fluorescence detection was carried out using a BD FACSVerse flow cytometer, and the data were analyzed with FlowJo software (BD Life Sciences). Data presented in the graph were normalized to the DMSO-treated sample.
# [3] = system: U2OS cells; test: Analysis of micronuclei; conditions: 48 h
# Experimental: 5 Small-molecule inhibitors of MUS81 mimic the effect of siRNA-mediated MUS81 depletion in cells. (A) U2OS cells were treated with DMSO, MUS81-targeting siRNA, MU262, MU876, or their respective control analogues for 48 h. Cytochalasin B (1.25 μg/mL) was added 16 h before harvest to prevent cytokinesis. […] (B) Representative images corresponding to the selected conditions from (A). (C) U2OS and (D) HeLa cells were incubated with DMSO, the indicated inhibitors, and their respective control analogues for 48 h. Nocodazole (200 ng/mL) was added for 5 h prior to the end of treatment to arrest cells in mitosis. Mitotic cells were collected by shake-off, and telomere fragility events (TFEs) were quantified manually for each metaphase spread. At least 70 metaphase spreads were quantified per condition. n = 3; error bars represent s.d.; ***p < 0.001, ****p < 0.0001 (ordinary One-way ANOVA).
# CAL51 WT and CAL51 MUS81^–/– cells were seeded in a 96-well plate 24 h before the treatment. Alternatively, cells were transfected with 30 nM siRNA (control or MUS81) for 48 h before treatment. Subsequently, cells were treated with respective inhibitors for 48 h. During the last 16 h, cytochalasin B (Sigma-Aldrich) was added to the cells at a concentration of 1.25 μg/mL. […] Images were acquired using a Nikon Eclipse fluorescence microscope and analyzed using ImageJ software.
# [4] = system: EJ5-GFP cells; test: I-SceI-based NHEJ repair reporter assay; conditions: 72 h
# Experimental: as §1, §2
# [5] = system: U2OS BIR-GFP cells; test: I-SceI-based BIR repair reporter assay; conditions: Homo sapiens, 72 h, normalized to DMSO
# Experimental: as §1, §2
# [6] = system: U2OS, HEK293, and CAL51; test: Cell proliferation assay (CyQUANT), combination with cisplatin; conditions: cotreatment with cisplatin, 5 days
# Experimental: 7 MUS81 inhibitors synergize with cisplatin to reduce cancer cell viability. (A,B) U2OS cells were treated with DMSO, MU262, or MU876 at the indicated concentrations in combination with a range of cisplatin (0–5 μM) for 96–120 h. Cell viability was assessed by the Cy-Quant assay. The survival was normalized to the DMSO-treated control. Graphs were generated in Graphpad Prism using the nonlinear regression fitting model. n ≥ 3, error bars represent s.d. (C) CAL51 WT cells were treated with DMSO, MU262, or MU876 at the indicated concentrations at each passage over 2 weeks. Cisplatin (12 μM) was added for the last 24 h before harvest. DNA damage was assessed by quantifying γH2AX foci using fluorescence microscopy and CellProfiller software. Data were visualized plotted in R software. Red markers represent the median of γH2AX foci number per nucleus; blue markers represent the percentage of cells with ≥20 γH2AX foci per nucleus. n = 3, error bars represent s.d.; ****p <0.0001 (unpaired, two-tailed t-test). TEXT PRINTED IN THE PICTURE: (C) D: γH2AX foci: 2.4 (DMSO); γH2AX foci: 59.6 (Cisplatin) | (C) MU262: γH2AX foci: 2.3 (1 μM; DMSO); γH2AX foci: 3 (2 μM; DMSO); γH2AX foci: 55.4 (1 μM; Cisplatin); γH2AX foci: 43.2 (2 μM; Cisplatin) | (C) MU876: γH2AX foci: 2.8 (0.25 μM; DMSO); γH2AX foci: 0.9 (0.5 μM; DMSO); γH2AX foci: 48.2 (0.25 μM; Cisplatin); γH2AX foci: 42.6 (0.5 μM; Cisplatin) DOUBTS OF THE COPYIST ABOUT THIS PICTURE: Panel C: the numbers in the blue markers have no measure or unit of their own printed in the picture; the axis title 'γH2AX foci' is given as the measure, but the numbers may stand for another quantity. / Panel C: 'D' is a control column with no concentration; it may not count as a substance. / Panel C: small white print on blue markers; 59.6, 55.4, 48.2, 43.2, 42.6, 2.8 and 0.9 are best readings (3, 5, 6, 8 and 9 are hard to tell apart).
# CAL51 WT, CAL51 MUS81^–/–, U2OS, and HEK293 cells were seeded in a 96-well plate and treated with the respective concentration of selected inhibitors. […]
# [7] = system: CAL51 WT cells; test: Long-term cell survival assay (retreatment twice a week); conditions: 1–3 μM, treated twice a week for almost 3 weeks
# Experimental: To evaluate the long-term effects of the inhibitors on the cellular viability, we treated cells twice a week for almost 3 weeks with low doses of MU262 and MU876.
# CAL51 WT cells were treated with DMSO, MU262 = 18, MU876 = 32, nontargeting siRNA, or siRNA targeting MUS81. Cells were trypsinized, counted, and replated twice a week and retreated with inhibitors or siRNA with every passage. The cell number was plotted at each time point. Data were plotted in Graphpad Prism (GraphPad Software) and a 2-way ANOVA test was used to assess significance.
Compound,sensitization to cisplatin [1],IC50 [2],micronuclei formation [3],effect on NHEJ [4],IC50 [5],enhancement of cisplatin-induced decrease of viability [6],long-term viability [7]
"Cc1cc(=O)[nH]c(-n2nc(-c3ccccc3)cc2NC(=O)c2cc(-c3ccccc3)on2)n1 [Compound 32, N-(1-(4-Methyl-6-oxo-1,6-dihydropyrimidin-2-yl)-3-phenyl-1H-pyrazol-5-yl)-5-phenylisoxazole-3-carboxamide]",no additional sensitization,0.5 to 1 µM,significantly increased micronuclei formation,no negative effect,0.24 µM,further enhanced by cotreatment with both MUS81 inhibitors in a dose-dependent manner,–
"CCc1nn2c(O)c(-c3nc4ccccc4[nH]3)nnc2c1-c1ccc(F)cc1 [Compound 18, 3-(1H-Benzo[d]imidazole-2-yl)-7-ethyl-8-(4-fluorophenyl)pyrazolo[5,1-c][1,2,4]triazin-4-ol]",no additional sensitization,0.5 to 1 µM,significantly increased micronuclei formation,no negative effect,1.53 µM,further enhanced by cotreatment with both MUS81 inhibitors in a dose-dependent manner,significant reduction in viability
